Measured values as given in patent US20240150340A1, “CDK Inhibitors And Their Use As Pharmaceuticals” (Prelude Therapeutics Incorporated, priority 2022, published 2024).

How the values were obtained:
CDK2/Cyclin E2 = molecular target: T1, CDK2/Cyclin E2 (Homo sapiens, UniProt P24941); assay: CDK2/CyclinE2 Enzymatic Activity Assay (TR-FRET); type: biochemical; settings: ATP 1 mM final, read-out: CDK2_E1 IC50
T1 construct: Recombinant protein complex CDK2/Cyclin E2, expressed from insect cell, was purchased from ProQinase
Protocol: CDK2/CyclinE2 Enzymatic Activity Assay
The inhibitory activity of compounds was evaluated in vitro using TR-FRET assay with white 384-well low volume microplate (Greiner Bio-One). CDK2/Cyclin E2 catalyzed phosphorylation of peptide in the presence and absence of compounds was measured and used in IC50 determination. Recombinant protein complex CDK2/Cyclin E2, expressed from insect cell, was purchased from ProQinase. Testing compounds were dissolved in DMSO at 1 mM and tested in 9-dose IC50 mode. The reaction mixture was prepared by mixing CDK2/CyclinE2 (1 nM final), ULight-4E-BP1 (50 nM final, Perkinelmer, TRF0128-D), and ATP (1 mM final) in assay buffer (20 mM of HEPES pH 7.4, 1 mM of EGTA, 0.05% BSA, 0.005% Tween 20, and 1 mM TCEP). The compound of interest in DMSO was added to each well in 3-fold serial dilution by dispenser (TECAN D300E) to make a 9.9 μL of reaction mixture. After 20 minutes preincubation at room temperature, 0.1 μL MgCl2 (10 mM final) was added to initiate the reaction. Following a 45 minute incubation at 37° C., the reaction was stopped by addition of 2 μL of quenching buffer consisting of Lance detection buffer (Perkinelmer CR97-100C), LANCE Ultra Europium-anti-P-4E-BP1 (Perkinelmer, TRF0216-D), EDTA, and incubated at room temperature for additional 60 minutes in the dark. The reaction signal was measured by Envision multimode plate reader (PerkinElmer, 2102-0010). IC50 values were determined by fitting the data to the standard 4 parameters with Hill Slope using GraphPad Prism software.

CDK4/Cyclin D1 = molecular target: T2, CDK4/Cyclin D1 (Homo sapiens, UniProt P11802); assay: CDK4/CyclinD1 Enzymatic Activity Assay (TR-FRET); type: biochemical; settings: ATP 2 mM final, read-out: CDK4_D1 IC50
T2 construct: purchased ProQinase; host or cells: insect cell
T2 sequence (P11802 whole entry): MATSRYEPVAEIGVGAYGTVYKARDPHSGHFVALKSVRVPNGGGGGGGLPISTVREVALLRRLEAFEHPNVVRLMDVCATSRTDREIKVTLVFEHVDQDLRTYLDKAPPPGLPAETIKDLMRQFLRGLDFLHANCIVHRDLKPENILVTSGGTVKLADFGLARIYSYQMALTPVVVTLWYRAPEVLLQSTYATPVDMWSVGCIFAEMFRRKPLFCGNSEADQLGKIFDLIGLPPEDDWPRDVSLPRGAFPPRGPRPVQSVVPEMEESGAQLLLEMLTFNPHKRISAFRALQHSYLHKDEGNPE
T2 sequence (P24385 whole entry partner): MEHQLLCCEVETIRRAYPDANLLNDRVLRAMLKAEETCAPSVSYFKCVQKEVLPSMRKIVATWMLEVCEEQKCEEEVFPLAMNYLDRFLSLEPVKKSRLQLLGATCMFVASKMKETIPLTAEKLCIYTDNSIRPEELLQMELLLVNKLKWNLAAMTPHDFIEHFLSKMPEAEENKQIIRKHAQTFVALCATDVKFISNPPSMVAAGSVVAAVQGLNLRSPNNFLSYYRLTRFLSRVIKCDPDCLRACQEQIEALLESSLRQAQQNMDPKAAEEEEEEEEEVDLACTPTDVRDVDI
Protocol: CDK4/CyclinD1 Enzymatic Activity Assay
The inhibitory activity of compounds was evaluated in vitro using TR-FRET assay with white 384-well low volume microplate (Greiner Bio-One). CDK4/Cyclin D1 catalyzed phosphorylation of peptide in the presence and absence of compounds was measured and used in IC50 determination. Recombinant protein complex CDK4/Cyclin D1, expressed from insect cell, was purchased from ProQinase. Testing compounds were dissolved in DMSO at 1 mM and tested in 9-dose IC50 mode. The reaction mixture was prepared by mixing CDK4/CyclinD1 (1 nM final), ULight-4E-BP1 (100 nM final, Perkinelmer, TRF0128-D), and ATP (2 mM final) in assay buffer (20 mM of HEPES pH 7.4, 1 mM of EGTA, 0.05% BSA, 0.005% Tween 20, and 1 mM TCEP). The compound of interest in DMSO was added to each well in 3-fold serial dilution by the dispenser (TECAN D300E) to make a 9.9 μL of reaction mixture. After 20 minutes preincubation at room temperature, 0.1 μL MgCl2 (10 mM final) was added to initiate the reaction. Following a 45-minute incubation at 37° C., the reaction was stopped by addition of 2 μL of quenching buffer consisting of Lance detection buffer (Perkinelmer CR97-100C), LANCE Ultra Europium-anti-P-4E-BP1 (Perkinelmer, TRF0216-D), EDTA, and incubated at room temperature for additional 60 minutes in dark. The reaction signal was measured by Envision multimode plate reader (PerkinElmer, 2102-0010). IC50 values were determined by fitting the data to the standard 4 parameters with Hill Slope using GraphPad Prism software.

OVCAR3 p-RB = assay: pRB ICW Assay in OVCAR3 Cells; type: cell-based; settings: Homo sapiens, OVCAR-3, incubated with compound for 2 hours
Protocol: pRB ICW Assay in OVCAR3 Cells
OVCAR3 cells were maintained in RPMI (Corning, Catalog #: 10-040-CV) supplemented with 10% v/v FBS (Gibco, Catalog #: 26140-079), 1% v/v Penicillin Streptomycin (Gibco, Catalog #15140-122.) OVCAR3 cells grown at log phase were trypsinized, counted, and resuspended in fresh medium to reach a final density of 6.7e4 cells/mL and 75 μL of culture were dispensed into a 384-well plate (Falcon, cat #353962) using a Multidrop Combi dispenser (Thermo Scientific). The next day, compounds were dispensed as a 9-point, ½ log serial dilution using a Tecan digital dispenser (D300e), and cells were incubated with compound for 2 hours in a humidified incubator at 37° C. A reference compound at a final concentration of 10 μM was used as a control for maximum inhibition. Each compound was tested in duplicate for each experiment. At the end of the incubation, […] (Electron Microscopy, cat #15710) was slowly added to each well and the plate was incubated at room temperature (RT) for 30 minutes to fix cells. Cells were then permeabilized by incubating with 50 μL/well of wash buffer (1×PBS with 0.1% Triton X-100) 5×5 minutes, followed by 1 hour blocking with 30 μL/well of Odyssey blocking buffer (Li-COR, cat #927-40000), at RT. Anti-phosphor RB antibody (Cell signaling 8516S) was diluted 1:1000 in Odyssey blocking buffer and 20 μL was added to all wells and incubated overnight in 4° C. with gently rocking. The next day, cells were washed 5×5 min with 50 μL/well of wash buffer, followed with 1 hour incubation with secondary antibody and DRAQ5 diluted in Odyssey blocking buffer (1:500 dilution for secondary antibody and 1:2000 dilution for DRAQ5), 5×5 min washes, and one last wash with water. Plates were dried in 37° C. oven for 5 minutes and scanned using Li-COR Odyssey CLx imaging system to acquire intensities at 700 and 800 nm channels.

SMILES	IC50 (CDK2/Cyclin E2) [nM]	IC50 (CDK4/Cyclin D1) [nM]	IC50 (OVCAR3 p-RB) [nM]
Cc1sc(-c2nc(NC3CCN(S(=O)(=O)c4cn(C)cn4)CC3)ncc2C(F)(F)F)cc1C#N [Example 1, 2-Methyl-5-[2-[[1-(1-methylimidazol-4-yl)sulfonylpiperidin-4-yl]amino]-5-(trifluoromethyl)pyrimidin-4-yl]thiophene-3-carbonitrile]	≤ 100	≤ 100	≤ 100
Cc1cnc(-c2nc(NC3CCN(S(=O)(=O)c4cnn(C)c4)CC3)ncc2C(F)(F)F)s1 [Example 2, N-(1-((1-methyl-1H-pyrazol-4-yl)sulfonyl)piperidin-4-yl)-4-(5-methylthiazol-2-yl)-5-(trifluoromethyl)pyrimidin-2-amine]	≤ 100	≤ 100	≤ 100
C[C@@H]1CN(S(C)(=O)=O)CC[C@@H]1Nc1ncc(C(F)(F)F)c(-c2ncc(C(O)C(F)(F)F)s2)n1 (stereo partly drawn) [Example 140, 2,2,2-trifluoro-1-(2-(2-(((3R,4S)-3-methyl-1-(methylsulfonyl)piperidin-4-yl)amino)-5-(trifluoromethyl)pyrimidin-4-yl)thiazol-5-yl)ethan-1-ol]	≤ 100		> 500
C[C@@H]1CN(S(=O)(=O)c2cnn(C)c2)CC[C@@H]1Nc1ncc(C(F)(F)F)c(-c2ncc(C(O)C(F)(F)F)s2)n1 (stereo partly drawn) [Example 141, 2,2,2-trifluoro-1-(2-(2-(((3R,4S)-3-methyl-1-((1-methyl-1H-pyrazol-4-yl)sulfonyl)piperidin-4-yl)amino)-5-(trifluoromethyl)pyrimidin-4-yl)thiazol-5-yl)ethan-1-ol]	≤ 100		100 to 500
C[C@@H]1CN(S(=O)(=O)c2cnn(C)c2)CC[C@@H]1Nc1ncc(C(F)(F)F)c(-c2ncc(C(C)(O)C(F)F)s2)n1 (stereo partly drawn) [Example 143, 1,1-difluoro-2-(2-(2-(((3R,4S)-3-methyl-1-((1-methyl-1H-pyrazol-4-yl)sulfonyl)piperidin-4-yl)amino)-5-(trifluoromethyl)pyrimidin-4-yl)thiazol-5-yl)propan-2-ol]	≤ 100		≤ 100
C[C@@H]1CN(S(=O)(=O)c2cnn(C)c2)CC[C@@H]1Nc1ncc(C(F)(F)F)c(-c2ncc(C(O)CF)s2)n1 (stereo partly drawn) [Example 144, 2-fluoro-1-(2-(2-(((3R,4S)-3-methyl-1-((1-methyl-1H-pyrazol-4-yl)sulfonyl)piperidin-4-yl)amino)-5-(trifluoromethyl)pyrimidin-4-yl)thiazol-5-yl)ethan-1-ol]	≤ 100		100 to 500
C[C@@H]1CN(S(C)(=O)=O)CC[C@@H]1Nc1ncc(C(F)(F)F)c(-c2ncc(C(O)CF)s2)n1 (stereo partly drawn) [Example 145, 2-fluoro-1-(2-(2-(((3R,4S)-3-methyl-1-(methylsulfonyl)piperidin-4-yl)amino)-5-(trifluoromethyl)pyrimidin-4-yl)thiazol-5-yl)ethan-1-ol]	≤ 100		> 500
C[C@@H]1CN(S(C)(=O)=O)CC[C@@H]1Nc1ncc(C(F)(F)F)c(-c2ncc(C(O)C(F)F)s2)n1 (stereo partly drawn) [Example 146, 2,2-difluoro-1-(2-(2-(((3R,4S)-3-methyl-1-(methylsulfonyl)piperidin-4-yl)amino)-5-(trifluoromethyl)pyrimidin-4-yl)thiazol-5-yl)ethan-1-ol]	≤ 100		100 to 500
C[C@@H]1CN(S(=O)(=O)N2CCOCC2)CC[C@@H]1Nc1ncc(C(F)(F)F)c(-c2ncc(CC(C)(C)O)s2)n1 [Example 147, 2-methyl-1-(2-(2-(((3R,4S)-3-methyl-1-(morpholinosulfonyl)piperidin-4-yl)amino)-5-(trifluoromethyl)pyrimidin-4-yl)thiazol-5-yl)propan-2-ol]	≤ 100		> 500
C[C@@H]1CN(S(=O)(=O)N2CCN(C)CC2)CC[C@@H]1Nc1ncc(C(F)(F)F)c(-c2ncc(CC(C)(C)O)s2)n1 [Example 148, 2-methyl-1-(2-(2-(((3R,4S)-3-methyl-1-((4-methylpiperazin-1-yl)sulfonyl)piperidin-4-yl)amino)-5-(trifluoromethyl)pyrimidin-4-yl)thiazol-5-yl)propan-2-ol]	≤ 100		> 500
C[C@@H]1CN(S(=O)(=O)N(C)C)CC[C@@H]1Nc1ncc(C(F)(F)F)c(-c2ncc(CC(C)(C)O)s2)n1 [Example 149, (3R,4S)-4-((4-(5-(2-hydroxy-2-methylpropyl)thiazol-2-yl)-5-(trifluoromethyl)pyrimidin-2-yl)amino)-N,N,3-trimethylpiperidine-1-sulfonamide]	≤ 100		> 500
C[C@@H]1CN(S(=O)(=O)c2cnn(C)c2)CC[C@@H]1Nc1ncc(C(F)(F)F)c(-c2ncc(C3(O)CC3)s2)n1 [Example 150, 1-(2-(2-(((3R,4S)-3-methyl-1-((1-methyl-1H-pyrazol-4-yl)sulfonyl)piperidin-4-yl)amino)-5-(trifluoromethyl)pyrimidin-4-yl)thiazol-5-yl)cyclopropan-1-ol]	≤ 100		100 to 500
C[C@@H]1CN(S(C)(=O)=O)CC[C@@H]1Nc1ncc(C(F)(F)F)c(-c2ncc(C3(O)CC3)s2)n1 [Example 151, 1-(2-(2-(((3R,4S)-3-methyl-1-(methylsulfonyl)piperidin-4-yl)amino)-5-(trifluoromethyl)pyrimidin-4-yl)thiazol-5-yl)cyclopropan-1-ol]	≤ 100		> 500
CC(C)(O)Cc1cnc(-c2nc(N[C@H]3CCN(S(C)(=O)=O)C[C@H]3F)ncc2Cl)s1 [Example 152, 1-(2-(5-chloro-2-(((3R,4S)-3-fluoro-1-(methylsulfonyl)piperidin-4-yl)amino)pyrimidin-4-yl)thiazol-5-yl)-2-methylpropan-2-ol]	≤ 100		100 to 500
CC(C)(O)Cc1cnc(-c2nc(N[C@H]3CCN(S(C)(=O)=O)C[C@H]3F)ncc2C#N)s1 [Example 153, 2-(((3R,4S)-3-fluoro-1-(methylsulfonyl)piperidin-4-yl)amino)-4-(5-(2-hydroxy-2-methylpropyl)thiazol-2-yl)pyrimidine-5-carbonitrile]	≤ 100		> 500
CC(C)(O)Cc1cnc(-c2nc(N[C@H]3CCN(S(C)(=O)=O)C[C@H]3F)ncc2C(F)F)s1 [Example 154, 1-(2-(5-(difluoromethyl)-2-(((3R,4S)-3-fluoro-1-(methylsulfonyl)piperidin-4-yl)amino)pyrimidin-4-yl)thiazol-5-yl)-2-methylpropan-2-ol]	≤ 100		> 500
